The values below come from patent US4547502A, “Dihydropyridines and their use in treating cardiac conditions and hypertension” (Pfizer Inc., priority 1982, dated 1985).

SMILES strings stand for the structures.

In the test the test system is spirally cut strips of rat aorta. Kind of test: Inhibition of calcium-induced contraction of isolated rat aorta strips (concentration required to reduce the response by 50%). Type of test: cell-based. The conditions noted are these: 0.75 h, in vitro, 45 millimolar potassium, contraction by calcium chloride, final calcium 2 millimolar, retest after 45 minutes with compound present, read-out: IC50 (molar concentration of the compounds required to reduce the response by 50%). The procedure: The ability of the compounds to inhibit the movement of calcium into the cell is shown by their effectiveness in reducing the response of isolated […] to an increase in calcium ion concentration in vitro. The test is performed by mounting spirally cut strips of rat aorta with one end fixed and the other attached to a force tranducer. The tissue is immersed in a bath of physiological saline solution containing potassium ions at a concentration of 45 millimolar and no calcium. Calcium chloride is added to the bath with a pipette to give a final calcium ion concentration of 2 millimolar. The change in tension caused by the resulting contraction of the tissue is noted. The bath is drained and replaced with fresh saline solution and, after 45 minutes, the test is repeated with the particular compound under test present in the saline solution. The concentration of compound required to reduce the response by 50% is recorded.

Consider `CCOC(=O)C1=C(COCCN2CCN(c3nc(N)nn3C)CC2)NC(C)=C(C(=O)OC)C1c1ccccc1Cl` (single isomer, unassigned) [Example 6 (more polar isomer), 2-[2-(4-{3-amino-1-methyl-1,2,4-triazol-5-yl}-piperazin-1-yl)ethoxymethyl]-4-(2-chlorophenyl)-3-ethoxycarbonyl-5-methoxycarbonyl-6-methyl-1,4-dihydropyridine hemihydrate], for which the IC50 amounted to 100 nM. The same measure for `CCOC(=O)C1=C(COCCN2CCN(C3=NCCC3)CC2)NC(C)=C(C(=O)OC)C1c1ccccc1Cl` (stereo not shown) [Example 1, 2-[2-(4-(1-Pyrrolin-2-yl)-piperazin-1-yl)ethoxymethyl]-4-(2-chlorophenyl)-3-ethoxycarbonyl-5-methoxycarbonyl-6-methyl-1,4-dihydropyridine]: 141 nM. The same measure for `CCOC(=O)C1=C(COCCN2CCN(C3=NCCN3)CC2)NC(C)=C(C(=O)OC)C1c1ccccc1Cl` (stereo not shown) [Example 2]: 100 nM; for `CCOC(=O)C1=C(COCCN2CCN(c3nccc(=O)[nH]3)CC2)NC(C)=C(C(=O)OC)C1c1ccccc1Cl` (stereo not shown) [Example 3]: 36 nM. The figure for `CCOC(=O)C1=C(COCCN2CCN(c3nccs3)CC2)NC(C)=C(C(=O)OC)C1c1ccccc1Cl` (stereo not shown) [Example 4] is 15 nM; for `CCOC(=O)C1=C(COCCN2CCN(c3nc(N)n[nH]3)CC2)NC(C)=C(C(=O)OC)C1c1ccccc1Cl` (stereo not shown) [Example 5, 2-{2-[4-(5-Amino-1,2,4-triazol-3-yl)piperazine-1-yl]ethoxymethyl}-4-(2-chlorophenyl)-3-ethoxycarbonyl-5-methoxycarbonyl-6-methyl-1,4-dihydropyridine, bis-maleate hemihydrate] it is 38 nM. With `CCOC(=O)C1=C(COCCN2CCN(c3nc(N)n(C)n3)CC2)NC(C)=C(C(=O)OC)C1c1ccccc1Cl` (stereo not drawn) [Example 6 (least polar isomer), 2-[2-(4-{5-amino-1-methyl-1,2,4-triazol-3-yl}-piperazin-1-yl)ethoxymethyl]-4-(2-chlorophenyl)-3-ethoxycarbonyl-5-methoxycarbonyl-6-methyl-1,4-dihydropyridine], the IC50 turned out to be 26 nM.
